Ends that are not written are not given here.
Assays:
cerebellar microexplants [1] = test: cerebellar microexplant survival assay, 3-NP/glutamate injury; format: cell-based, rat
Procedure: Toxicological and drug administration experiments were designed such that 1/100 parts of toxin and neuroprotective drug were administered simultaneously to the freshly prepared cerebellar microexplants derived from P-4 or P8 rats. Glutamate was prepared as a 50 mM stock solution in MilliQ water while 50 mM 3-nitropropionic acid was pH-adjusted (pH 6.8-7.2) in MilliQ water. The concentrations of the oxidative stress inducing toxin, 3-nitropropionic acid (3-NP), and the excitotoxin, glutamate, in the assay were 0.5 mM each. Lyophilized peptides were reconstituted in PBS or 100 μg/ml human transferrin as a 10 μM stock solution. Subsequently, serial dilutions were made. Cerebellar microexplants were cultivated for 48-72 hours at 34° C., 5% CO2 in air and 100% humidity before they were fixed by increasing amounts of paraformaldehyde (0.4%, 1.2%, 3% and 4%—each treatment 2-3 min).
For statistical analysis of survival, four fields (each field having an area of 0.65 mm^2) of each fixed cerebellar culture with the highest cell densities were chosen, and cells displaying neurite outgrowth were counted. Statistical significance was measured by Student's t-test.
Laminated cerebellar cortex was extracted from P3/4, P7/8 rat pups and triturated through gauze having a 125 μm pore size to obtain uniformly sized microexplants. After centrifugation for 3 minutes at 61 g and the pellet was resuspended in StartV medium (Biochrom) and the suspension seeded on poly-D-lysine coated coverslips in 6-well plates and incubated for 3 hrs to allow adherence, before 1 ml StartV per well was added. As described previously, glutamate/3-NP and NRP were also added. The explants are cultivated at 34° C. at 5% CO2 and 100% humidity for 48-72 hrs. BrdU was administered at start of cultivation for proliferation rate measurements and cells are counted per microscopic field after 48-72 hrs.
Cerebellar Microexplants were prepared as described in Example 9 with the addition of SDF-1 as described, in addition to glutamate/3-NP, and NRP.
Cerebellar microexplants were prepared as described in Example 9 with the addition of SDF-1, Wortmannin and PD98059 (both Calbiochem), as described, in addition to glutamate/3-NP, and NRP.

mouse neural stem cells = test: haptotactic migration assay, mouse neural stem cells; format: cell-based
Procedure: NRPs were tested for migration-inducing/chemoattractive activity on mouse neural stem cells, EGF-dependent immortalized mouse neural stem cell line MEB5 and wild-type PC-12 cells in a haptotactic migration assay as described below.
Initial NRP Coating. Control wells of Transwell plates (Coming) with 12 μm pore size were coated in 1.5 ml of the BSA/PBS vehicle. Remaining plates were coated using various concentrations of NRPs ranging between 1-100 ng/ml (prepared in PBS containing 10 ug/ml BSA). The plates were then incubated at 37° C. for 1 hr to coat. Wells were then rinsed 2× with 1 ml sterile PBS.
Laminin ([…]) for MEB-5 cells, PDL (50 μg/ml)+Matrigel for mouse primary stem cells and fibronectin (25 ug/ml)+matrigel for PC-12 cells were used as extracellular matrix (ECM) coating for the cells. All ECM compounds were diluted in PBS. 1.5 ml of the ECM per well was incubated for 2 hrs at room temperature. The wells were then rinsed once with Iml serum-free media (e.g. NB/B27) followed by 1 ml PBS wash.
A 5 ug/mL PDL/PLL mixture (in PBS) was used to coat inserts. Subsequently the inserts were rinsed with MilliQ water.
Transferring to Media and Cell Seeding: Appropriate medium (MEB-5 cells: DMEM-high glucose+N2 (growth medium supplement from Invitrogen)+10 ng/biotin+2 mM L-glutamine, primary stem cells: NSA-medium from Euroclone and for PC-12 cells: NB/B27 medium) was transferred into the 12-well plates. […] Plates were fixed at 1-2 days in vitro (DIV).
Fixation: Inserts were discarded and wells fixed in successive dilutions of PFA (0.4, 1.2, 3 and 4%) for 3-5min in each dilution. […] The wells were rinsed and stored in PBS until counting.
A haptotactic migration assay was performed according to the description of Example 10 using rat NRP-9SD (SEQ ID NO:34) (4 nM) and mouse NRP-7SW (SEQ ID NO:24) (0.4 nM) as attractants in a Boyden chamber

hypoxic-ischemic injury = hypoxic-ischemic injury (HI) in adult rats, histological tissue damage score; format: in vivo, rat; conditions: five days after insult; for neuroprotection: ICV 2 hrs after hypoxia
Procedure: To test the efficacy of NRPs in vivo studies were carried out in rats that had been exposed to hypoxic-ischemic injury (HI). Adult rats (50 days old, Wistar, 250-300 g, male) were used. The modified Levine model preparation and experimental procedures were used (Rice et al, 1981, Ann. Neurol. 9: 131-141; Guan et al J., 1993, Cereb. Blood Flow Metab.: 13(4): 609-16). These procedures in brief, consist of an HI injury induced by unilateral carotid artery ligation followed by inhalational asphyxia in the animals with an implanted lateral ventricular cannula. A guide cannula was stereotaxically placed on the top of the dura 1.5 mm to the right of the mid-line and 7.5 mm anterior to the interaural zero plane under halothane anaesthesia. The right carotid artery was double ligated two days after the cannulation. After a 1-hour recovery period from anaesthesia, each of the rats was placed in an incubator where the humidity (90±5%) and temperature ([…]) were controlled for another hour, and then each of the rats was exposed to hypoxia (6% oxygen) for 10 min. The animals were kept in the incubator for an additional 2 hours before treatment.
Rats were treated intracerebral ventricularly (icv) with 5 nM (n=12), 50 nM (n=12) or 500 nM of NRP-4 segment PQ (PGRAEAGGQ; SEQ ID NO:43) dissolved in saline, or vehicle (n=10) (normal saline) 2 hours after hypoxic-ischemic insult.
Histological examination was performed on rats 5 days after the hypoxic-ischemic injury. The rats were killed with an overdose of sodium pentobarbital and were perfused transcardially with normal saline followed by 10% formalin. The brains were kept in the same fixative for a minimum of 2 days before being processed using a standard paraffin imbedding procedure.
Coronal sections 8 μm in thickness were cut from the striatum, cerebral cortex and hippocampus and were stained with thionin and acid fuchsin. The severity of tissue damage was scored in the striatum, cortex and the CA1-2, CA3, CA4 and dentate gyrus of the hippocampus. […]

[2] = tested on: embryonic cerebellar microexplants; test: neural cell proliferation in embryonic cerebellar microexplants; format: cell-based
Description: In another set of studies, we determined effects of NRP-5 RG on induction of neural cell proliferation in embryonic cerebellar microexplants as described herein.

cerebellar microexplants [3] = conditions: AT2 receptor agonist, 96 hours after start of cultivation (Cote et al., 1999); cited from earlier work
cerebellar microexplants [4] = test: cerebellar microexplants, oxidative stress by 0.1 mM hydrogen peroxide; format: cell-based; conditions: 48 hrs
Procedure: In this series of experiments, we studied whether NRP-4 Segment PQ (“NRP-4 PQ”) was able to protect cerebellar microexplanted cells from oxidative injury. We exposed cells to vehicle, 0.1 mM hydrogen peroxide or different concentrations of NRP-4 PQ in vehicle. […] Although the mechanism for this potentiation of neurite outgrowth is uncertain, it may relieve the stresses associated with creating or maintaining the microexplants themselves.

Substance | higher neuroprotection than SEQ ID NO:46 (cerebellar microexplants [1]) [%] | times higher potency than SEQ ID NO:46 (cerebellar microexplants [1]) | greater chemoattractive effect than control (BSA-containing) medium (mouse neural stem cells) [%] | neuroprotection (hypoxic-ischemic injury) | concentration of maximal proliferation-inducing activity [2] [pM] | longest migration distances (cerebellar microexplants [3]) | neuroprotection within all analysed brain regions (hypoxic-ischemic injury; 9 ng/20 μl icv 2 hrs after hypoxia) [%] | neuroprotection (cerebellar microexplants [4])
REGRRDAPGRAGG-NH2 [NRP-5 segment RG, 13-mer fragment of NRP-5] | 20 | 10^6 to 10^7 times | 42.1 | substantial neuroprotection in all analysed brain regions | 100 |  |  | 
CGP-42112 |  |  |  |  |  | around 550 im |  | 
PGRAEAGGQ-NH2 [NRP-4 segment PQ, 9-mer of NRP-4] |  |  |  | substantial neuroprotection in all analysed brain regions |  |  | 100 | even greater than that of control explants receiving no peroxide

— US7563862B2, “Neural regeneration peptides and methods for their use in treatment of brain damage” (Neuren Pharmaceuticals Limited, priority 2001, dated 2009)
